Data as given in PMC5298231, “The Malaria Parasite's Lactate Transporter PfFNT Is the Target of Antiplasmodial Compounds Identified in Whole Cell Phenotypic Screens” (PLoS Pathogens, 2017).

Test system: erythrocytes infected with 3D7 trophozoites
Type: cell-based, Plasmodium falciparum
Conditions: Av 3hr; 6 μM

COc1ccc2c(c1)OC(O)(C(F)(F)C(F)(F)F)CC2=O (stereo not shown) [MMV007839]
2-Hydroxyglutarate log2 ratio (+MMV007839/-MMV007839): -0.6103
2-Ketoglutarate log2 ratio (+MMV007839/-MMV007839): -0.8232
3-Phosho-D-glycerate log2 ratio (+MMV007839/-MMV007839): 0.07426
3-Phospho-serine log2 ratio (+MMV007839/-MMV007839): -0.4035
4-Aminobutanoate log2 ratio (+MMV007839/-MMV007839): 0.8488
5-Phosphoribosyl-1-pyrophosphate log2 ratio (+MMV007839/-MMV007839): 0.5077
ADP log2 ratio (+MMV007839/-MMV007839): -0.7166
AMP log2 ratio (+MMV007839/-MMV007839): -0.5704
ATLS log2 ratio (+MMV007839/-MMV007839): -0.2347
ATP log2 ratio (+MMV007839/-MMV007839): -0.2177
Acetyl-CoA log2 ratio (+MMV007839/-MMV007839): -0.7235
Acetyl-L-alanine log2 ratio (+MMV007839/-MMV007839): -0.3599
Adenine log2 ratio (+MMV007839/-MMV007839): -0.8446
Arginine log2 ratio (+MMV007839/-MMV007839): 0.2396
Asparagine log2 ratio (+MMV007839/-MMV007839): -0.1753
Aspartic Acid log2 ratio (+MMV007839/-MMV007839): -0.3736
CDP log2 ratio (+MMV007839/-MMV007839): -0.5752
CDP-ethanolamine log2 ratio (+MMV007839/-MMV007839): 0.02366
CMP log2 ratio (+MMV007839/-MMV007839): -0.08882
CTP log2 ratio (+MMV007839/-MMV007839): -0.3119
Cholesteryl sulfate log2 ratio (+MMV007839/-MMV007839): -0.1335
Citrate log2 ratio (+MMV007839/-MMV007839): -0.1028
CoA log2 ratio (+MMV007839/-MMV007839): -0.556
Cyclic AMP log2 ratio (+MMV007839/-MMV007839): -0.7854
Cytidine log2 ratio (+MMV007839/-MMV007839): -0.2914
D-Glucono-1-4-lactone log2 ratio (+MMV007839/-MMV007839): 1.992
DALT log2 ratio (+MMV007839/-MMV007839): -0.8981
DEVG log2 ratio (+MMV007839/-MMV007839): -0.08263
DGLA log2 ratio (+MMV007839/-MMV007839): -0.7349
DLS log2 ratio (+MMV007839/-MMV007839): -0.6175
Deoxycytidine log2 ratio (+MMV007839/-MMV007839): 1.594
Dihydroorotate log2 ratio (+MMV007839/-MMV007839): -1.064
ESFG log2 ratio (+MMV007839/-MMV007839): -0.07747
EVGG log2 ratio (+MMV007839/-MMV007839): -0.1694
Erythrose 4-phosphate log2 ratio (+MMV007839/-MMV007839): -0.2579
FAD log2 ratio (+MMV007839/-MMV007839): -0.4239
FMN log2 ratio (+MMV007839/-MMV007839): -0.4985
Farnesyl diphosphate log2 ratio (+MMV007839/-MMV007839): -0.04123
Folate log2 ratio (+MMV007839/-MMV007839): -0.3602
Fructose-1-6-bisphosphate log2 ratio (+MMV007839/-MMV007839): 1.146
Fructose-6-Phosphate log2 ratio (+MMV007839/-MMV007839): 0.05598
GDP log2 ratio (+MMV007839/-MMV007839): -1.202
GDP-mannose log2 ratio (+MMV007839/-MMV007839): -0.4414
GMP log2 ratio (+MMV007839/-MMV007839): -1.665
GTP log2 ratio (+MMV007839/-MMV007839): -0.7051
Geranylgeranyl pyrophosphate log2 ratio (+MMV007839/-MMV007839): -0.6827
Gluconate log2 ratio (+MMV007839/-MMV007839): -0.02575
Glucose-6-Phosphate log2 ratio (+MMV007839/-MMV007839): -0.3489
Glutamate log2 ratio (+MMV007839/-MMV007839): -0.07518
Glutamine log2 ratio (+MMV007839/-MMV007839): 0.8027
Glutathione disulfide log2 ratio (+MMV007839/-MMV007839): -0.1266
Glutathione log2 ratio (+MMV007839/-MMV007839): -0.02749
Glyceraldehyde 3-phosphate log2 ratio (+MMV007839/-MMV007839): -0.5897
Glycerone phosphate log2 ratio (+MMV007839/-MMV007839): 0.4029
HLD log2 ratio (+MMV007839/-MMV007839): -0.9223
HVDD log2 ratio (+MMV007839/-MMV007839): -1.392
Histidine log2 ratio (+MMV007839/-MMV007839): 0.6908
Homoserine log2 ratio (+MMV007839/-MMV007839): 0.249
Hydroxy-L-proline log2 ratio (+MMV007839/-MMV007839): 0.1081
Hypoxanthine log2 ratio (+MMV007839/-MMV007839): 0.2683
IDP log2 ratio (+MMV007839/-MMV007839): 0.1036
IMP log2 ratio (+MMV007839/-MMV007839): -0.04113
Inosine log2 ratio (+MMV007839/-MMV007839): 0.2492
Isoleucine log2 ratio (+MMV007839/-MMV007839): 0.01345
LD log2 ratio (+MMV007839/-MMV007839): 0.008648
Lactate log2 ratio (+MMV007839/-MMV007839): 2.632
Leucine log2 ratio (+MMV007839/-MMV007839): -0.1293
Lysine log2 ratio (+MMV007839/-MMV007839): 0.8307
Malate log2 ratio (+MMV007839/-MMV007839): -0.2233
Mannitol log2 ratio (+MMV007839/-MMV007839): -0.2308
Methionine log2 ratio (+MMV007839/-MMV007839): -0.1652
Myristic acid log2 ratio (+MMV007839/-MMV007839): -0.3456
N-Acetyl-glutamate log2 ratio (+MMV007839/-MMV007839): -0.8123
N-Carbamoyl-L-aspartate log2 ratio (+MMV007839/-MMV007839): -1.502
NAD+ log2 ratio (+MMV007839/-MMV007839): 0.03216
NADH log2 ratio (+MMV007839/-MMV007839): -1.72
NADP+ log2 ratio (+MMV007839/-MMV007839): -0.3346
Octoluse Bisphosphate log2 ratio (+MMV007839/-MMV007839): 1.811
Ornithine log2 ratio (+MMV007839/-MMV007839): -0.1015
Orotate log2 ratio (+MMV007839/-MMV007839): -1.466
Orotidine 5-phosphate log2 ratio (+MMV007839/-MMV007839): -1.489
Orotidine log2 ratio (+MMV007839/-MMV007839): -1.057
PAEF log2 ratio (+MMV007839/-MMV007839): -1.307
PAVH log2 ratio (+MMV007839/-MMV007839): -1.929
PD log2 ratio (+MMV007839/-MMV007839): 0.2119
PDAV log2 ratio (+MMV007839/-MMV007839): 0.3685
PE log2 ratio (+MMV007839/-MMV007839): 0.9141
PEE log2 ratio (+MMV007839/-MMV007839): -0.2135
PHF log2 ratio (+MMV007839/-MMV007839): 0.05129
PPVQ log2 ratio (+MMV007839/-MMV007839): -0.3492
PVNF log2 ratio (+MMV007839/-MMV007839): -0.8559
PVQ log2 ratio (+MMV007839/-MMV007839): 0.3164
PVQA log2 ratio (+MMV007839/-MMV007839): -1.408
Pantothenate log2 ratio (+MMV007839/-MMV007839): -0.2954
Phenylalanine log2 ratio (+MMV007839/-MMV007839): -0.1326
Phosphoenolpyruvate log2 ratio (+MMV007839/-MMV007839): 0.2604
Pipecolate log2 ratio (+MMV007839/-MMV007839): 0.1041
Proline log2 ratio (+MMV007839/-MMV007839): -0.09895
Pyridoxine log2 ratio (+MMV007839/-MMV007839): -0.07403
Pyruvate log2 ratio (+MMV007839/-MMV007839): 1.858
Ribose-5-phosphate log2 ratio (+MMV007839/-MMV007839): 0.8813
S-Adenosyl-L-homocysteine log2 ratio (+MMV007839/-MMV007839): -0.314
SDGLA log2 ratio (+MMV007839/-MMV007839): -0.3844
SFGD log2 ratio (+MMV007839/-MMV007839): -0.2955
Sedoheptoluse bisphosphate log2 ratio (+MMV007839/-MMV007839): -0.1481
Sedoheptulose-1/7-phosphate log2 ratio (+MMV007839/-MMV007839): 0.2199
